Entries after “also recorded” stand apart in the source; their conditions may differ. Marks after values point to notes of the source that are not given here.
Assays:
p16-3MR mice [1] = assay: Next generation sequencing of circulating miRNAs in serum after induction (dox) and removal (GCV) of senescent cells; format: in vivo, mouse; conditions: for log fold change: p16-3MR mice; for avg TPM dox: dox-treated p16-3MR mice
Method: p16-3MR (Demaria et al, 2014, Developmental Cell 31:722-733) mice were bred in house and maintained in the AALAC-accredited Buck Institute for Research on Aging (Novato, Calif.) animal facility. 10 to 12-week-old p16-3MR male mice were used for experiments. Mice were divided in 4 groups and each group consisted of 3 animals. In group A, control mice were injected with PBS. In group B, mice were treated with Ganciclovir (GCV) (Sigma-Aldrich) dissolved in PBS for 5 consecutive days. In group C, mice were treated with one dose of Doxorubicine hydrochloride (Sigma-Aldrich) dissolved in PBS. In group D, mice were first treated with Doxorubicine and then treated 10 days later with GCV. Mice were intraperitoneally injected with one dose of 10 mg/kg of Doxorubicine hydrochloride, and GCV was administered daily by intraperitoneal injections for 5 consecutive days at concentration of 25 mg/kg in PBS. 4 days after the last GCV dose, animals were euthanized with CO2 and blood was withdrawn immediately. Blood was then incubated for 30 min at room temperature and centrifuged at 3400×g for 10 min. Serum was carefully collected in a sterile tube without disturbing the cell pellet and stored at −80° C. for further experiments.
Total RNA extraction was performed from 200 μl of serum using the Qiagen miRNeasy™ extraction kit (Qiagen, Germany). RNA yield was quality checked for homogenous extraction efficiency and hemolysis on the basis qPCR amplification of spiked-in as well as hemolysis-responsive RNAs (Blondal et al). In total 2 μl total RNA were used for library preparation using the CleanTag library preparation protocol (Trilink Biotechnologies, USA), which uses chemically modified adapters to prevent adapter self-ligation. Library quality and yield was controlled using Bioanalyzer DNA-1000 chips. Due to the high purity, libraries were not purified prior to sequencing on an ILLUMINA™ NextSeq 500 sequencing system with 50 bp single-end reads.
Next-generation sequencing was performed at Exiqon (Denmark). Raw reads were quality filtered for a Q-score of 30 or higher. Adapter sequences were trimmed and the remaining reads were mapped against the mouse genome, miRBase, non-coding RNA databases and classified as either microRNAs, small RNAs, genome mapping RNAs or outmapped RNA sequences. Read counts were added for all microRNA isoforms (isomiRs) and normalized by dividing the microRNA read count by the total number of mapped reads and multiplying by 1 million (Tags Per Million). Tags per millions were used for data mining (PCA and hierarchical clustering) using the web-tool clustvis (Metsalu and Vilo 2015).
For differential expression analysis, the EdgeR statistical software package was used. For normalization, the trimmed mean of M-values method was used based on log-fold and absolute gene wise changes in expression levels between samples (TMM normalization). […] Additionally, the normalization step offsets under-sampling effects (due to highly expressed microRNAs dominating the read set) by identifying scaling factors that minimize log-fold changes between samples across the majority of microRNAs.
For exploratory data analysis we applied principal component analysis (PCA) to the dataset of 50 most variable microRNAs according to the coefficient of variation. The PCA plot clearly indicates an effect of […] (dox) treatment on circulating microRNA levels in p16-3MR mice compared to the PBS treated control animals (FIG. 2). […] Analysis of differentially circulating miRNAs was focused on changes between dox treated versus control (PBS) to identify those miRNAs that are modulated by induction of senescence, as well as dox-GCV vs dox, in order to identify miRNAs that change after removal of senescent cells. A p-value threshold of <0.05 without correction for multiple testing was used. […] GCV-treated animals are supposed to have a reduced number of senescent cells compared to PBS due to forced apoptosis. […]

p16-3MR mice [2] = assay: RT-qPCR verification of serum circulating microRNA changes, one-way ANOVA; format: in vivo, mouse; conditions: for change of serum level following senolytic treatment (DOX/GCV compared to DOX): p<0.05, in words; for One-way ANOVA Senolytic Treatment (DOX/GCV) / One-way ANOVA Senescence (DOX vs PBS): serum; for One-way ANOVA Senolytic Treatment (DOX/GCV): DOX/GCV compared to DOX; for One-way ANOVA Senescence (DOX vs PBS): n=8 per group, male and female mice; for regulation in serum after exposure to DOX compared to PBS: independent of gender, in words
Method: p16-3MR (Demaria et al, 2014, Developmental Cell 31:722-733) mice were bred in house and maintained in the AALAC-accredited Buck Institute for Research on Aging (Novato, Calif.) animal facility. 10 to 12-week-old p16-3MR […] mice were used for experiments. Mice were divided in 4 groups and each group consisted of 8 animals, 5 female, and 3 male, respectively. In group A, control mice were injected with PBS. In group B, mice were treated with Ganciclovir (GCV) (Sigma-Aldrich) dissolved in PBS for 5 consecutive days. In group C, mice were treated with one dose of Doxorubicine hydrochloride (Sigma-Aldrich) dissolved in PBS. In group D, mice were first treated with Doxorubicine and then treated 10 days later with GCV. Mice were intraperitoneally injected with one dose of 10 mg/kg of Doxorubicine hydrochloride, and GCV was administered daily by intraperitoneal injections for 5 consecutive days at concentration of 25 mg/kg in PBS. 4 days after the last GCV dose, animals were euthanized with CO2 and blood was withdrawn immediately. Blood was then incubated for 30 min at room temperature and centrifuged at 3400×g for 10 min. Serum was carefully collected in a sterile tube without disturbing the cell pellet and stored at −80° C. for further experiments.
Total RNA extraction was performed from 200 μl of serum using the Qiagen miRNeasy extraction kit (Qiagen, Germany). RNA yield was quality checked for homogenous extraction efficiency and hemolysis on the basis qPCR amplification of spiked-in as well as hemolysis-responsive RNAs (Blondal et al). In total 2 μl total RNA were used for reverse transcription using the Exiqon Universal RT kit II (Exiqon, Denmark). The obtained cDNA samples were pre-diluted 1:40 and subsequently mixed with SYBR Green® Mix (Exiqon, Denmark) to achieve a 1:100 dilution. The mix was distributed to primer-coated 384-well plates containing dried primer pairs for 96 selected microRNA or quality control assays. QPCR amplification was performed on a Roche LightCycler 480 II, using the manufacturer's recommendation for annealing, extension and denaturation.
Raw Cq-values were computed using the 2nd derivative method. Melting curves were checked for peaks to ensure specificity of the amplification reactions. Cq-values were subsequently normalized using Spike-In controls as references, to reduce technical noise in the data.
(§1) Statistical analysis was performed using Medcalc (version 18.2.1). Normal distribution was assessed using D'Agostino-Pearson test, where normality was accepted at p>0.05. One-way ANOVA together together with Student-Newman-Keuls test for all pairwise comparisons (post-hoc tests) was used to identify significant changes between groups (p<0.05). To assess the discriminatory power of individual microRNAs, receiver operating characteristic (ROC) analysis was applied. ROC curves were plotted using sensitivity (y-axis) and 1-specificity (x-axis) and the area under the ROC curve (AUC) was calculated. MicroRNAs with AUC-values of >0.7 were considered as good discriminators/biomarkers. MicroRNAs with AUC-values >0.8 were considered very good discriminators/biomarkers.

p16-3MR mice [3] = assay: Pearson correlation of serum miRNA levels to miR-34a-5p and miR-27a-3p; set-up: species or system mouse; conditions: for Pearson Correlcation coefficient miR44a-5p: correlation of serum level to miR44a-5p (so in the source); for Pearson Correlcation coefficient miR-27a-3p: correlation of serum level to miR-27a-3p
Description: In order to extend these finding to potential additional miRNAs, we performed Pearson correlation to miR-34a-5p and miR-27a-3p, resulting in additional potential biomarkers (Table 18).

p16-3MR mice [4] = assay: ROC analysis of discriminatory power of circulating microRNAs; format: in vivo, mouse; conditions: serum, RT-qPCR, symbol after the number = significance; for ROC Analysis AUC Senescence: DOX vs PBS; for ROC Analysis AUC Senolytic Treatment: DOX/GCV vs DOX
Method: as §1
In order to assess the diagnostic power of circulating microRNAs for the exposure with senescence inducing substances (DOX) as well as the efficacy of senolytic treatment, ROC analysis was performed and the area-under-the-curve (AUC) was calculated. […] Table 23 below summarizes AUC values as well as 95% confidence intervals for 24 selected circulating microRNAs.

Compound	One-way ANOVA Senolytic Treatment (DOX/GCV) (p16-3MR mice [2])	One-way ANOVA Senescence (DOX vs PBS) (p16-3MR mice [2])	ROC Analysis AUC Senescence (p16-3MR mice [4])	ROC Analysis AUC Senolytic Treatment (p16-3MR mice [4])	log fold change (p16-3MR mice [1]; serum miRNA, NGS, dox vs pbs)	avg TPM dox (p16-3MR mice [1]; serum miRNA, NGS) [TPM]	also measured
COc1cccc2c1C(=O)c1c(O)c3c(c(O)c1C2=O)C[C@@](O)(C(=O)CO)C[C@@H]3O[C@H]1C[C@H](N)[C@H](O)[C@H](C)O1.Cl [Doxorubicine hydrochloride, reference compound]							circulating miRNA levels upon induction of senescence (p16-3MR mice [1]; PCA of 50 most variable microRNAs, compared to PBS, in words): significantly changed
Nc1nc(O)c2ncn(COC(CO)CO)c2n1 [ganciclovir, Ganciclovir, reference compound]							serum miRNAs compared to PBS treated animals (p16-3MR mice [1]; GCV 25 mg/kg i.p. for 5 days, in words): consistent decrease
miR-24-3p: circulating microRNA biomarker, SEQ ID No. 21 (UGGCUCAGUUCAGCAGGAACAG; expressed or natural sequence; listed as Homo sapiens)	* (significant p < 0.05)	○	0.609°	0.789*			change of serum level following senolytic treatment (DOX/GCV compared to DOX) (p16-3MR mice [2]): significantly changed; Pearson Correlcation coefficient miR44a-5p (p16-3MR mice [3]): 0.61; Pearson Correlcation coefficient miR-27a-3p (p16-3MR mice [3]): 0.89
miR-27a-3p: circulating microRNA biomarker, SEQ ID No. 5 (UUCACAGUGGCUAAGUUCCGC; expressed or natural sequence; listed as Homo sapiens)	* (significant p < 0.05)	○	0.664°	0.719+	1.08	16.50	serum level after rescue with dox+GCV (removal of senescent cells) (p16-3MR mice [1]; NGS, in words): decreased; serum level in dox-treated animals compared to PBS controls (p16-3MR mice [1]; NGS, in words): higher; also recorded: increased; change of serum level following senolytic treatment (DOX/GCV compared to DOX) (p16-3MR mice [2]): significantly changed
miR-34a-5p: circulating microRNA biomarker, SEQ ID No. 1 (UGGCAGUGUCUUAGCUGGUUGU; expressed or natural sequence; listed as Homo sapiens)	○	* (significant p < 0.05)	1.000*	0.672°	1.13	8.00	serum level after rescue with dox+GCV (removal of senescent cells) (p16-3MR mice [1]; NGS, in words): decreased; serum level in dox-treated animals compared to PBS controls (p16-3MR mice [1]; NGS, in words): higher; also recorded: increased; serum level after rescue with dox+GCV (removal of senescent cells) (p16-3MR mice [1]; NGS, in words, listed as miR-34a): significant decline; avg TPM GCV (p16-3MR mice [1]; serum miRNA, NGS, comparison group of Table 17, printed GCV): 8.00 TPM; avg TPM dox + GCV (p16-3MR mice [1]; serum miRNA, NGS, dox + GCV treated p16-3MR mice): 2.33 TPM; log fold change (p16-3MR mice [1]; serum miRNA, NGS, dox + gcv vs gcv (so in the source)): −1.34; regulation in serum after exposure to DOX compared to PBS (p16-3MR mice [2]): significantly (up- or down-regulated)
miR-151-5p: circulating microRNA biomarker, SEQ ID No. 17 (UCGAGGAGCUCACAGUCUAGU; expressed or natural sequence; listed as Homo sapiens)	○	* (significant p < 0.05)	0.828*	0.609°			regulation in serum after exposure to DOX compared to PBS (p16-3MR mice [2]): significantly (up- or down-regulated); Pearson Correlcation coefficient miR44a-5p (p16-3MR mice [3]): 0.73; Pearson Correlcation coefficient miR-27a-3p (p16-3MR mice [3]): 0.37
mmu-let-7f-5p: circulating microRNA, SEQ ID No. 2 (UGAGGUAGUAGAUUGUAUAGUU; expressed or natural sequence; listed as Homo sapiens)					−1.29	178.25	
mmu-miR-143-3p: circulating microRNA, SEQ ID No. 4 (UGAGAUGAAGCACUGUAGCUC; expressed or natural sequence; listed as Homo sapiens)					−1.57	393.00	
mmu-miR-144-5p: circulating microRNA, SEQ ID No. 7 (GGAUAUCAUCAUAUACUGUAAG; expressed or natural sequence; listed as Homo sapiens)					−1.06	34.50	

Source: patent US11814680B2, “Biomarkers for detecting senescent cells” (Universität für Bodenkultur Wien, priority 2017, dated 2023)
